{
  "source": "paper PMC6447596",
  "about": "(2019)",
  "key": {"[1]": {"tested_on": "Oligo A (DNA, G4) GGATGGGGTGGGGAGG", "assay": "UV-Vis titration", "details": "5 mM K+, 95 mM Li+ (5 K buffer); 10 mM Li cacodylate pH 7.2; 20 µM RHPS4 titrated with annealed oligo; two-state direct fit"}, "[2]": {"tested_on": "F21D (DNA, G4) GGGTTAGGGTTAGGGTTAGGG", "assay": "FRET melting", "details": "5 mM K+, 95 mM Li+ (5 K buffer); 10 mM Li cacodylate pH 7.2; 0.2 µM F21D; sub-micromolar RHPS4; printed 'at least 15 °C'"}, "[3]": {"tested_on": "Oligo A (DNA, G4) GGATGGGGTGGGGAGG", "assay": "CD melting (264 nm)", "details": "5 mM K+, 95 mM Li+ (5 K buffer); 5 µM oligo; 2 eq RHPS4; 10 mM Li cacodylate pH 7.2"}, "[4]": {"tested_on": "Oligo B (DNA, G4) GGGGGATGCGGGGG", "assay": "UV-Vis titration", "details": "5 mM K+, 95 mM Li+ (5 K buffer); 10 mM Li cacodylate pH 7.2; 20 µM RHPS4 titrated with annealed oligo; two-state direct fit"}, "[5]": {"tested_on": "Oligo B (DNA, G4) GGGGGATGCGGGGG", "assay": "CD melting (260 nm alone, 295 nm with RHPS4)", "details": "5 mM K+, 95 mM Li+ (5 K buffer); 5 µM oligo; 2 eq RHPS4; 10 mM Li cacodylate pH 7.2"}},
  "data": [
    {"smiles": "Cc1cc2c3c([n+](C)c4ccc(F)cc4c3c1)-c1cc(F)ccc1N2C", "values": [
      {"measurement": "Ka", "setting": "[1]", "result": "0.5 ± 0.3 × 10^6 /M"},
      {"measurement": "ΔTm", "setting": "[2]", "result": 15, "unit": "°C"},
      {"measurement": "melting temperature increase", "setting": "[3]", "result": 7.2, "unit": "°C"},
      {"measurement": "Ka", "setting": "[4]", "result": "0.5 ± 0.3 × 10^6 /M"},
      {"measurement": "melting temperature increase", "setting": "[5]", "result": 14.9, "unit": "°C"}
    ]}
  ]
}
